From PubChem BioAssay AID276 (DTP/NCI, 2004)
Several values for one entry are separate records, joined by “and”; a condition that tells them apart may be missing. Equal values may be shown once. Toxic doses and inconclusive results are not listed. How the source made its calls: active means survival T/C of 150% or more; inactive means T/C below 125% in these data.

System: B6C3F1 mice, Lewis lung carcinoma iv, survival T/C
Assay: NCI In Vivo Anticancer Drug Screen. Data for tumor model Lewis Lung Carcinoma (intravenous) in B6C3F1 mice
Details: endpoint: median survival time, higher = longer survival
Outline: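 T/C ratio derived from survival of compound-treated versus vehicle-treated mice bearing transplantable tumors.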

[1] = dose: 12.5 mg/kg/injection, schedule: Q01DX009 (ip), vehicle: Klucel (hydroxypropylcellulose) (HPC)
[2] = dose: 25.0 mg/kg/injection, schedule: Q01DX009 (ip), vehicle: Klucel (hydroxypropylcellulose) (HPC)
[3] = dose: 50.0 mg/kg/injection, schedule: Q01DX009 (ip), vehicle: Klucel (hydroxypropylcellulose) (HPC)
[4] = dose: 25.0 mg/kg/injection, schedule: Q01DX009 (ip), vehicle: water
[5] = dose: 50.0 mg/kg/injection, schedule: Q01DX009 (ip), vehicle: water
[6] = dose: 100.0 mg/kg/injection, schedule: Q01DX009 (ip), vehicle: water
[7] = dose: 200.0 mg/kg/injection, schedule: Q01DX009 (ip), vehicle: water
[8] = dose: 6.25 mg/kg/injection, schedule: Q01DX009 (ip), vehicle: saline with Tween-80
[9] = dose: 12.5 mg/kg/injection, schedule: Q01DX009 (ip), vehicle: saline with Tween-80
[10] = dose: 25.0 mg/kg/injection, schedule: Q01DX009 (ip), vehicle: saline with Tween-80
[11] = dose: 50.0 mg/kg/injection, schedule: Q01DX009 (ip), vehicle: saline with Tween-80
[12] = dose: 100.0 mg/kg/injection, schedule: Q01DX009 (ip), vehicle: saline with Tween-80
[13] = dose: 10.0 mg/kg/injection, schedule: Q01DX009 (ip), vehicle: saline
[14] = dose: 20.0 mg/kg/injection, schedule: Q01DX009 (ip), vehicle: saline
[15] = dose: 6.25 mg/kg/injection, schedule: Q01DX009 (ip), vehicle: Klucel (hydroxypropylcellulose) (HPC)

Measured: T/C

CC(C)=CC(=O)OC1C2C(C)=CC(=O)C(O)C2(C)C2C3(O)OCC24C(CC(=O)OC14)C(C)C3O (centres undefined)
inactive: dose: 0.25 mg/kg/injection, schedule: Q01DX009 (ip), vehicle: distilled water + Tween-80 107 % of control | dose: 0.5 mg/kg/injection, schedule: Q01DX009 (ip), vehicle: distilled water + Tween-80 98 % of control | dose: 1.0 mg/kg/injection, schedule: Q01DX009 (ip), vehicle: distilled water + Tween-80 102 % of control | dose: 2.0 mg/kg/injection, schedule: Q01DX009 (ip), vehicle: distilled water + Tween-80 98 % of control

CCNC(=O)[B-][N+](C)(C)C
inactive: [1] 98 % of control | [2] 103 % of control | [3] 100 % of control | dose: 100.0 mg/kg/injection, schedule: Q01DX009 (ip), vehicle: Klucel (hydroxypropylcellulose) (HPC) 106 % of control

OC1OC2COC(c3ccccc3)OC2C(O)C1O (centres undefined)
inactive: [4] 101 % of control | [5] 99 % of control | [6] 98 % of control | [7] 101 % of control | dose: 400.0 mg/kg/injection, schedule: Q01DX009 (ip), vehicle: water 99 % of control | dose: 800.0 mg/kg/injection, schedule: Q01DX009 (ip), vehicle: water 93 % of control

Nc1nc2c(C(=O)N3CCCC3)nnn2c2ccccc12
inactive: [8] 100 % of control | [9] 99 % of control | [10] 100 % of control | [11] 107 % of control | [12] 99 % of control

O=C(CCCCCCC(=O)ON1C(=O)CCC1=O)ON1C(=O)CCC1=O
inactive: [10] 94 % of control | [11] 94 % of control | [12] 93 % of control

CN(C)CCN1C(=O)c2cccc3cc([N+](=O)[O-])cc(c23)C1=O
inactive: dose: 0.75 mg/kg/injection, schedule: Q01DX009 (ip), vehicle: saline with Tween-80 94 % of control | dose: 1.5 mg/kg/injection, schedule: Q01DX009 (ip), vehicle: saline with Tween-80 93 % of control | dose: 3.0 mg/kg/injection, schedule: Q01DX009 (ip), vehicle: saline with Tween-80 101 % of control | dose: 6.0 mg/kg/injection, schedule: Q01DX009 (ip), vehicle: saline with Tween-80 95 % of control

O=NN(CCF)C(=O)NC1C(O)CCCC1O (centres undefined)
active: [13] 312 % of control
inactive: dose: 2.5 mg/kg/injection, schedule: Q01DX009 (ip), vehicle: saline 116 % of control | [14] 104 % of control

C[C@]12C=CC(=O)C=C1CC[C@@H]1[C@@H]2C(=O)C[C@@]2(C)[C@H]1CC[C@]2(O)C(=O)CO
inactive: dose: 12.5 mg/kg/injection, schedule: Q01DX009 (ip), vehicle: water 100 % of control | [4] 100 % of control | [5] 96 % of control | [6] 98 % of control | [7] 94 % of control

Cc1cc2nc3c(=O)[nH]c(=O)nc-3n(CC(O)C(O)C(O)C(O)CO)c2cc1C (centres undefined)
inactive: dose: 25.0 mg/kg/injection, schedule: Q01DX009 (ip), vehicle: suspension in saline 95 % of control | dose: 50.0 mg/kg/injection, schedule: Q01DX009 (ip), vehicle: suspension in saline 110 % of control | dose: 100.0 mg/kg/injection, schedule: Q01DX009 (ip), vehicle: suspension in saline 111 % of control | dose: 200.0 mg/kg/injection, schedule: Q01DX009 (ip), vehicle: suspension in saline 115 % of control

N#C[Se-].c1ccc([Te+](c2ccccc2)c2ccccc2)cc1
inactive: dose: 1.56 mg/kg/injection, schedule: Q01DX009 (ip), vehicle: Klucel (hydroxypropylcellulose) (HPC) 97 % of control | dose: 3.12 mg/kg/injection, schedule: Q01DX009 (ip), vehicle: Klucel (hydroxypropylcellulose) (HPC) 97 % of control | [15] 97 % of control | [1] 100 % of control | [2] 86 % of control

O=C1N(CC2CO2)CCN1CC1CO1 (centres undefined)
inactive: dose: 12.5 mg/kg/injection, schedule: Q01DX009 (ip), vehicle: saline 114 % of control | dose: 25.0 mg/kg/injection, schedule: Q01DX009 (ip), vehicle: saline 112 % of control | dose: 50.0 mg/kg/injection, schedule: Q01DX009 (ip), vehicle: saline 114 % of control

O=c1[nH]cc(F)c(=O)[nH]1
inactive: dose: 5.0 mg/kg/injection, schedule: Q01DX009 (ip), vehicle: saline 105 % of control | [13] 97 % of control and 102 % of control | [14] 107 % of control

C[CH2][Ge]([CH2]C)[CH2]C.C[CH2][Ge]([CH2]C)[CH2]C.C[CH2][Ge]([CH2]C)[O][Ge]([CH2]C)[CH2]C
inactive: [8] 105 % of control | [9] 106 % of control | [10] 106 % of control | [11] 101 % of control | [12] 113 % of control

CC(=O)OC1(C)CC(C)C(=O)C(C(O)CC2CC(=O)NC(=O)C2)C1 (centres undefined)
inactive: dose: 15.6 micrograms/kg/injection, schedule: Q01DX009 (ip), vehicle: saline 96 % of control | dose: 31.3 micrograms/kg/injection, schedule: Q01DX009 (ip), vehicle: saline 95 % of control | dose: 62.5 micrograms/kg/injection, schedule: Q01DX009 (ip), vehicle: saline 100 % of control | dose: 125.0 micrograms/kg/injection, schedule: Q01DX009 (ip), vehicle: saline 100 % of control | dose: 250.0 micrograms/kg/injection, schedule: Q01DX009 (ip), vehicle: saline 107 % of control

CC(O)CCC(=O)c1ccoc1 (centres undefined)
inactive: dose: 0.62 mg/kg/injection, schedule: Q03HX027 (ip), vehicle: saline 105 % of control | dose: 1.25 mg/kg/injection, schedule: Q03HX027 (ip), vehicle: saline 97 % of control | dose: 2.5 mg/kg/injection, schedule: Q03HX027 (ip), vehicle: saline 103 % of control | dose: 5.0 mg/kg/injection, schedule: Q03HX027 (ip), vehicle: saline 94 % of control

CC1=NNC(=O)C1CCO (centres undefined)
inactive: [15] 104 % of control | [1] 96 % of control | [2] 108 % of control | [3] 92 % of control and 99 % of control | dose: 200.0 mg/kg/injection, schedule: Q01DX009 (ip), vehicle: Klucel (hydroxypropylcellulose) (HPC) 98 % of control and 108 % of control | dose: 400.0 mg/kg/injection, schedule: Q01DX009 (ip), vehicle: Klucel (hydroxypropylcellulose) (HPC) 112 % of control
